The source of these data is patent US20240173369A1 (priority 2021, published 2024).

Test [1] has as its system Pseudomonas aeruginosa strains 883, 762, PAO1. Put plainly: Synergism with antibiotic in liquid infection (OD600 growth curves). It is filed as cell-based. The method, then:
To test the efficacy of the phage and antibiotics in liquid culture, bacterial host cells were grown overnight in TSB at 37° C. with shaking at 180 rpm to OD600>1.5. In addition, each phage was diluted to a concentration of 5×10^7 PFU/ml in TSB and used individually or combined equally with other phages into a cocktail. Then, 1 mM ions were added, and 200 μL was dispensed per well in a 96-well plate to a final concentration of […]. For no phage control (NPC), TSB containing 1 mM ions was used. Antibiotics was added to the relevant wells (aztreonam 4 μg/mL, colistin 2 μg/mL for “883,” 4 μg/mL for “762” and 6 μg/mL for PAO1). Then, 2 μL of the bacterial culture was added to the wells (dilution of 1:100). TSB containing 1 mM ions was used as NPC. Two repeats were done for each treatment, and TSB media served as a blank. 50 μL of mineral oil added were added to each well to reduce evaporation of the samples, and the plate was covered with a sterile film to allow for bacterial growth and keep the culture sterile. Plates were incubated for approximately 30 hours in a plate reader at 37° C. with shaking, and OD600 was measured every 20 minutes. Two biological repeats were performed for the assay.

A further test relates to P. aeruginosa. Put plainly: Minimal inhibitory concentration. Format: cell-based. The conditions noted are these: Pseudomonas aeruginosa.
Test [2] deals with P. aeruginosa embedded in pre-formed biofilm. The test is described as follows: Viability of P. aeruginosa embedded in pre-formed biofilm (BacTiter-Glo). Format: cell-based, Pseudomonas aeruginosa. Conditions: 24 h biofilm, 6 hours treatment; RLU converted to cCFU. As to the method: To test the effect of phage on biofilm, starters of the relevant bacteria were grown overnight. Three isolated single colonies of the relevant strains were picked into 3 mL TSB and shook overnight at 37° C., 180 rpm, to an OD600>1, one starter used for each of two biological repeats. The next day, the starters were dispersed in 96 wells plate and the biofilm was left to form for 24 hours: cultures were diluted 1:100 in 3 mL fresh TSB (Tryptic Soy Broth) medium and OD600 was adjusted to ˜0.05 (˜4×10^7 CFU/mL). 200 μL of the diluted inoculums were added per well in a 96 well culture plate (Biofil, cat #TCP-011-096) according to the plate layout. 200 μL TSB was used for blank wells. […] After the incubation period, the supernatant was carefully removed (media, waste, phages/antibiotics, and planktonic cells) the biofilm was washed again with 200 μL PBS (Phosphate-buffered saline, Hylabs, cat #BP655) and its biomass measured (staining with crystal violet (CV) and/or viable cells (plating for CFU enumeration).
For host cells viability assessment, the BacTiter-Glo (Promega, cat #G8231) method was used. The method measures viable bacterial cells based on quantification of the ATP present in the viable cells. The readout is a luminescent signal (in relative light units (RLU)) in an ATP-dependent reaction. […]

Molecules are shown by their SMILES. In brackets after ≈: the same amount, converted by molar mass.

Take `C[C@H]1[C@H](NC(=O)/C(=N\OC(C)(C)C(=O)O)c2csc(N)n2)C(=O)N1S(=O)(=O)O` [aztreonam]: the “effect on bacterial growth / appearance of bacteria mutants” value in test [1] (PsA strains (e.g., PAO1, 883)) is “slower bacterial growth throughout the observed period”. For the molecule `NC[C@H]1O[C@H](O[C@H]2[C@H](O)[C@@H](O[C@H]3O[C@H](CO)[C@@H](O)[C@H](N)[C@H]3O)[C@H](N)C[C@@H]2N)[C@H](N)C[C@@H]1O` [Tobramycin, tobramycin], the “time growth was suppressed” value in test [1] (PsA strains, single treatment alone) is “approximately 25 hours”.

Usually MIC stands for the lowest concentration found to suppress growth. A high value points to a less susceptible organism. `C[C@@H](O)[C@H]1C(=O)N2C(C(=O)O)=C(SCCN=CN)C[C@H]12` [antibiotic, imipenem] returned a minimum inhibitory concentration (MIC) against P. aeruginosa of 4 µg/mL (≈ 13.4 µM). Moreover, the “reduction of bacterial burden of embedded PsA” value in test [2] is on record as ~1 logs.
